These results are taken from patent US6984649B1, “Pyridine derivatives” (Bayer Aktiengesellschaft, priority 2000, dated 2006).

Counter-ions that a name gives are not always drawn.

The assay deals with T1, human IKK-β (Homo sapiens, UniProt O14920).
T1 construct: A cDNA fragment encoding human IKK-β open reading frame was generated by PCR; His tag (from pcDNA3.1/His C); made in house; host or cells: Sf21 insect cells (baculovirus); substrate made in E. coli
T1 sequence (O14920 1-756): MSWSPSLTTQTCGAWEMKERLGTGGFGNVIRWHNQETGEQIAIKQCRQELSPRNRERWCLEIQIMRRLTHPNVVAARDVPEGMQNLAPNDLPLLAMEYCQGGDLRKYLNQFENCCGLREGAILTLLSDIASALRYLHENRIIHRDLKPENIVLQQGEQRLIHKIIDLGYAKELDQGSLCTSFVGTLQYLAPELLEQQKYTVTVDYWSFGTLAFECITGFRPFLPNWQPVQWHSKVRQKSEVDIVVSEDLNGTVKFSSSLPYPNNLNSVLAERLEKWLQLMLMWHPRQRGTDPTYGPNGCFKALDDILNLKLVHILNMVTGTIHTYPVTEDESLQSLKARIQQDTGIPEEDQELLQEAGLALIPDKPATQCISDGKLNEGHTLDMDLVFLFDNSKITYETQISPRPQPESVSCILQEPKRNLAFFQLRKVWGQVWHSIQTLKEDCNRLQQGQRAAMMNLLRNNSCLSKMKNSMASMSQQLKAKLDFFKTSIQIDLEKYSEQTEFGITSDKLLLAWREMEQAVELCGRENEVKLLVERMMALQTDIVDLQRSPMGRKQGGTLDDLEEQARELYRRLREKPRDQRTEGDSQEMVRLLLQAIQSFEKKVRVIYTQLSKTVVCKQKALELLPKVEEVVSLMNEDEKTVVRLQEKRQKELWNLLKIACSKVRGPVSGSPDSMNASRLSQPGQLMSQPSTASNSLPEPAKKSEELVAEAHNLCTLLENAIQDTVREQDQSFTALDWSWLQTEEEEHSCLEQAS
The assay can be described thus: IKK-β kinase inhibitory assay. The assay is classed as biochemical. Particulars: compounds as yielded by solid phase synthesis, purity about 40 to 90%, read-out: In vitro activity grade (In vitro IC50). Put shortly: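 Radiometric read-out: streptavidin capture of 33P-labelled bio-GST-IκBα(1-54), 0.2 μM, after a 2 h room-temperature reaction started with ATP/[γ-33P]ATP. Enzyme was recombinant His-tagged human IKK-β expressed in Sf21 insect cells, used at 0.6 μg/ml in Tris-HCl pH 7.6/MgCl2 kinase buffer. Compounds added in 2.5% DMSO.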

As usually defined, the IC50 is the point on the concentration scale where inhibition reaches its midpoint.

For `CNC1CCCC(c2cc(-c3ccccc3O)nc(N)c2C#N)C1` (centres unmarked) [Example 1-5, 2-amino-6-(2-hydroxyphenyl)-4-[3-methylamino]cyclohexyl]nicotinonitrile hydrochloride], the 50% inhibitory concentration (IC50) is less than 500 nM.
In the case of `N#Cc1c(C2CCCNC2)cc(-c2c(N)cccc2O)nc1N` (centres unmarked) [Example 1-10, 2-amino-6-(2-amino-6-hydroxyphenyl)-4-(3-piperidinyl)nicotinonitrile hydrochloride] it was 2000 to 10000 nM.
